According to patent US9765105B2, “Macrolide compound” (Pulike Biological Engineering, Inc., priority 2013, dated 2017):

How the values were obtained:
Test in all cases: in vitro susceptibility, MIC by mini broth dilution
Assay type in all cases: cell-based
Haemophilus parasuis = test system: Haemophilus parasuis
Procedure, shortened: (§1)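 Following the NCCLS standard, each compound is serially halved in DMSO to give 11 concentrations, run in duplicate alongside a control well. Inocula come from colonies grown 20 h at 35° C and are diluted 1:200 into broth; MIC is taken by mini broth dilution.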

[1] = test system: Actinobacillus pleuropneumoniae CVCC262; conditions: strain CVCC262
Procedure, shortened: as §1

[2] = test system: Pasteurella multocida CVCC399; conditions: strain CVCC399
Procedure, shortened: as §1

[3] = test system: Streptococcus equines CVCC556; conditions: strain CVCC556
Procedure, shortened: as §1

[4] = test system: Staphylococcus aureus CVCC26003; conditions: strain CVCC26003
Procedure, shortened: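 MICs were determined by mini broth dilution under NCCLS standards in CAMHB, using revived S. aureus CVCC26003 subcultured 20 h at 35° C. Compounds were two-fold serially diluted in DMSO across 11 wells, with duplicate rows. Bacterial suspension was diluted 1:200 in medium before inoculation.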

| MIC values, Haemophilus parasuis (Haemophilus parasuis) [ug/mi] | MIC values, Actinobacillus pleuropneumoniae CVCC262 [1] [ug/mi] | MIC values, Pasteurella multocida CVCC399 [2] [ug/mi] | MIC values, Streptococcus equines CVCC556 [3] [ug/mi] | MIC values, Staphylococcus aureus CVCC26003 [4] [ug/mi] | SMILES |
| --- | --- | --- | --- | --- | --- |
| 0.5 | 1 | 2 | 0.5 | 1 | CCCN1C[C@H](C)[C@@H](O)[C@](C)(O)[C@@H](CC)OC(=O)[C@H](C)[C@@H](O[C@H]2C[C@@](C)(OC)[C@](O)(CNCc3cccc(OC)c3)[C@H](C)O2)[C@H](C)[C@@H](O[C@@H]2O[C@H](C)C[C@H](N(C)C)[C@H]2O)[C@](C)(O)C[C@H]1C [syzx-135] |
| 0.25 | 0.5 | 0.5 | 0.25 | 0.25 | CCCN1C[C@H](C)[C@@H](O)[C@](C)(O)[C@@H](CC)OC(=O)[C@H](C)[C@@H](O[C@H]2C[C@@](C)(OC)[C@](O)(CN3CCNCC3)[C@H](C)O2)[C@H](C)[C@@H](O[C@@H]2O[C@H](C)C[C@H](N(C)C)[C@H]2O)[C@](C)(O)C[C@H]1C [syzx-136] |
| 0.5 | 0.5 | 2 | 1 | 0.5 | CCCN1C[C@H](C)[C@@H](O)[C@](C)(O)[C@@H](CC)OC(=O)[C@H](C)[C@@H](O[C@H]2C[C@@](C)(OC)[C@](O)(CNC(=O)C(F)(F)F)[C@H](C)O2)[C@H](C)[C@@H](O[C@@H]2O[C@H](C)C[C@H](N(C)C)[C@H]2O)[C@](C)(O)C[C@H]1C [syzx-137] |
| 2 | 2 | 8 | 0.5 | 2 | CCCN1C[C@H](C)[C@@H](O)[C@](C)(O)[C@@H](CC)OC(=O)[C@H](C)[C@@H](O[C@H]2C[C@@](C)(OC)[C@](O)(CNc3ccnc(Cl)c3)[C@H](C)O2)[C@H](C)[C@@H](O[C@@H]2O[C@H](C)C[C@H](N(C)C)[C@H]2O)[C@](C)(O)C[C@H]1C [syzx-138] |
| 0.25 | 0.25 | 1 | 0.25 | 0.25 | C#CCNC[C@]1(O)[C@H](C)O[C@@H](O[C@H]2[C@H](C)[C@@H](O[C@@H]3O[C@H](C)C[C@H](N(C)C)[C@H]3O)[C@](C)(O)C[C@@H](C)N(CCC)C[C@H](C)[C@@H](O)[C@](C)(O)[C@@H](CC)OC(=O)[C@@H]2C)C[C@@]1(C)OC [syzx-140] |
| 0.25 | 0.25 | 1 | 0.25 | 0.25 | CCCN1C[C@H](C)[C@@H](O)[C@](C)(O)[C@@H](CC)OC(=O)[C@H](C)[C@@H](O[C@H]2C[C@@](C)(OC)[C@](O)(CNC(CC)C(=O)O)[C@H](C)O2)[C@H](C)[C@@H](O[C@@H]2O[C@H](C)C[C@H](N(C)C)[C@H]2O)[C@](C)(O)C[C@H]1C (stereo partly drawn) [syzx-141] |
| 0.25 | 0.25 | 0.5 | 0.5 | 0.25 | CCCN1C[C@H](C)[C@@H](O)[C@](C)(O)[C@@H](CC)OC(=O)[C@H](C)[C@@H](O[C@H]2C[C@@](C)(OC)[C@](O)(CNCCCC(=O)O)[C@H](C)O2)[C@H](C)[C@@H](O[C@@H]2O[C@H](C)C[C@H](N(C)C)[C@H]2O)[C@](C)(O)C[C@H]1C [syzx-142] |
| 0.25 | 0.25 | 1 | 0.25 | 0.25 | CCCN1C[C@H](C)[C@@H](O)[C@](C)(O)[C@@H](CC)OC(=O)[C@H](C)[C@@H](O[C@H]2C[C@@](C)(OC)[C@](O)(CNCCOCCO)[C@H](C)O2)[C@H](C)[C@@H](O[C@@H]2O[C@H](C)C[C@H](N(C)C)[C@H]2O)[C@](C)(O)C[C@H]1C [syzx-143] |
| 0.5 | 64 | 2 | 0.5 | 1 | CCCN1CC(C)C(O)C(C)(O)C(CC)OC(=O)C(C)C(OC2CC(C)(OC)C(O)(CNC(CO)CO)C(C)O2)C(C)C(OC2OC(C)CC(N(C)C)C2O)C(C)(O)CC1C (stereo not drawn) [syzx-145] |
| 0.25 | 0.25 | 0.5 | 0.25 | 0.25 | CCCN1C[C@H](C)[C@@H](O)[C@](C)(O)[C@@H](CC)OC(=O)[C@H](C)[C@@H](O[C@H]2C[C@@](C)(OC)[C@](O)(CNCCCO)[C@H](C)O2)[C@H](C)[C@@H](O[C@@H]2O[C@H](C)C[C@H](N(C)C)[C@H]2O)[C@](C)(O)C[C@H]1C [syzx-146] |
| 0.25 | 0.25 | 0.5 | 0.25 | 0.25 | CCCCCNC[C@]1(O)[C@H](C)O[C@@H](O[C@H]2[C@H](C)[C@@H](O[C@@H]3O[C@H](C)C[C@H](N(C)C)[C@H]3O)[C@](C)(O)C[C@@H](C)N(CCC)C[C@H](C)[C@@H](O)[C@](C)(O)[C@@H](CC)OC(=O)[C@@H]2C)C[C@@]1(C)OC [syzx-147] |
| 0.5 | 0.5 | 1 | 0.25 | 0.25 | CCCN1C[C@H](C)[C@@H](O)[C@](C)(O)[C@@H](CC)OC(=O)[C@H](C)[C@@H](O[C@H]2C[C@@](C)(OC)[C@](O)(CNN3CCOCC3)[C@H](C)O2)[C@H](C)[C@@H](O[C@@H]2O[C@H](C)C[C@H](N(C)C)[C@H]2O)[C@](C)(O)C[C@H]1C [syzx-148] |
| 0.5 | 1 | 2 | 0.25 | 0.5 | CCCN1C[C@H](C)[C@@H](O)[C@](C)(O)[C@@H](CC)OC(=O)[C@H](C)[C@@H](O[C@H]2C[C@@](C)(OC)[C@](O)(CNC(C)CC(=O)O)[C@H](C)O2)[C@H](C)[C@@H](O[C@@H]2O[C@H](C)C[C@H](N(C)C)[C@H]2O)[C@](C)(O)C[C@H]1C (stereo partly drawn) [syzx-150] |
| 0.25 | 0.25 | 0.5 | 0.25 | 0.25 | CCCN1C[C@H](C)[C@@H](O)[C@](C)(O)[C@@H](CC)OC(=O)[C@H](C)[C@@H](O[C@H]2C[C@@](C)(OC)[C@](O)(CNC(CC)CO)[C@H](C)O2)[C@H](C)[C@@H](O[C@@H]2O[C@H](C)C[C@H](N(C)C)[C@H]2O)[C@](C)(O)C[C@H]1C (stereo partly drawn) [syzx-151] |
| 0.25 | 0.25 | 0.5 | 0.5 | 0.25 | CCCN1C[C@H](C)[C@@H](O)[C@](C)(O)[C@@H](CC)OC(=O)[C@H](C)[C@@H](O[C@H]2C[C@@](C)(OC)[C@](O)(CNCc3ccc(F)c(F)c3)[C@H](C)O2)[C@H](C)[C@@H](O[C@@H]2O[C@H](C)C[C@H](N(C)C)[C@H]2O)[C@](C)(O)C[C@H]1C [syzx-154] |
| 0.25 | 0.25 | 0.5 | 0.25 | 0.25 | CCCN1C[C@H](C)[C@@H](O)[C@](C)(O)[C@@H](CC)OC(=O)[C@H](C)[C@@H](O[C@H]2C[C@@](C)(OC)[C@](O)(CNCc3cc(F)cc(F)c3)[C@H](C)O2)[C@H](C)[C@@H](O[C@@H]2O[C@H](C)C[C@H](N(C)C)[C@H]2O)[C@](C)(O)C[C@H]1C [syzx-155] |
| 4 | 4 | 2 | 0.25 | 2 | CCCN1C[C@H](C)[C@@H](O)[C@](C)(O)[C@@H](CC)OC(=O)[C@H](C)[C@@H](O[C@H]2C[C@@](C)(OC)[C@](O)(CNCCOC)[C@H](C)O2)[C@H](C)[C@@H](O[C@@H]2O[C@H](C)C[C@H](N(C)C)[C@H]2O)[C@](C)(O)C[C@H]1C [syzx-158] |

| SMILES | MIC values, Haemophilus parasuis (Haemophilus parasuis) [ug/mi] | MIC values, Actinobacillus pleuropneumoniae CVCC262 [1] [ug/mi] | MIC values, Pasteurella multocida CVCC399 [2] [ug/mi] | MIC values, Streptococcus equines CVCC556 [3] [ug/mi] | MIC values, Staphylococcus aureus CVCC26003 [4] [ug/mi] |
| --- | --- | --- | --- | --- | --- |
| CCCN1CC(C)C(O)C(C)(O)C(CC)OC(=O)C(C)C(OC2CC(C)(OC)C(O)(CNCCOS(=O)(=O)O)C(C)O2)C(C)C(OC2OC(C)CC(N(C)C)C2O)C(C)(O)CC1C (stereo not drawn) [syzx-153] | 0.25 | 0.25 | 1 | 0.25 | 0.25 |
